Test results taken from US4742049A, “Semisynthetic erythromycin antibiotics” (Abbott Laboratories, priority 1986, dated 1988).
Converted amounts (≈) assume the structure as drawn. Read-outs that look alike come from different tables or passages of the source.

How the values were obtained:
[1] = system: Providencia stuartii; assay: antimicrobial spectrum, agar dilution MIC; format: cell-based; settings: strain CMX 640, BHI agar, 20-24 hours
How it was run: (§1)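 MIC was read as the lowest drug concentration showing no growth, a faint haze or sparsely isolated colonies relative to a compound-free control plate. Organisms, diluted 1:100 or 1:10 for slow-growing strains, were replicator-spotted onto BHI agar containing serial aqueous dilutions and incubated 20-24 hours at 35°-37° C.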

[2] = system: Pseudomonas aeruginosa; assay: antimicrobial spectrum, agar dilution MIC; format: cell-based; settings: Pseudomonas aeruginosa, BHI agar, 20-24 hours
How it was run: as §1

[3] = system: Staph. aureus; assay: antimicrobial spectrum, agar dilution MIC; format: cell-based; settings: Staphylococcus aureus, BHI agar, 20-24 hours
How it was run: as §1

[4] = system: Staph. epidermidis; assay: antimicrobial spectrum, agar dilution MIC; format: cell-based; settings: Staphylococcus epidermidis, BHI agar, 20-24 hours
How it was run: as §1

[5] = system: Strep. agalactiae; assay: antimicrobial spectrum, agar dilution MIC; format: cell-based; settings: Streptococcus agalactiae, BHI agar, 20-24 hours
How it was run: as §1

[6] = system: Strep. bovis; assay: antimicrobial spectrum, agar dilution MIC; format: cell-based; settings: Streptococcus equinus, strain A5169; BHI agar, 20-24 hours
How it was run: as §1

[7] = system: Strep. faecalis; assay: antimicrobial spectrum, agar dilution MIC; format: cell-based; settings: Enterococcus faecalis, BHI agar, 20-24 hours
How it was run: as §1

[8] = system: Strep. faecium; assay: antimicrobial spectrum, agar dilution MIC; format: cell-based; settings: Enterococcus faecium, ATCC8043, strain ATCC 8043; BHI agar, 20-24 hours
How it was run: as §1

[9] = system: Strep. pneumoniae; assay: antimicrobial spectrum, agar dilution MIC; format: cell-based; settings: Streptococcus pneumoniae
How it was run: as §1

[10] = system: Strep. pyogenes; assay: antimicrobial spectrum, agar dilution MIC; format: cell-based; settings: Streptococcus pyogenes, BHI agar, 20-24 hours
How it was run: as §1

[11] = system: E. coli; assay: antimicrobial spectrum, agar dilution MIC; format: cell-based; settings: Escherichia coli, BHI agar, 20-24 hours
[12] = system: Micrococcus luteus; assay: antimicrobial spectrum, agar dilution MIC; format: cell-based; settings: 20-24 hours
[13] = system: Lactobacillus Casei; assay: antimicrobial spectrum, agar dilution MIC; format: cell-based; settings: Lacticaseibacillus casei, ATCC7469, strain ATCC 7469; BHI agar, 20-24 hours
[14] = system: Ent. aerogenes; assay: antimicrobial spectrum, agar dilution MIC; format: cell-based; settings: Klebsiella aerogenes, ATCC10348, strain ATCC 10348; BHI agar, 20-24 hours
[15] = system: Klebsiella pneumoniae; assay: antimicrobial spectrum, agar dilution MIC; format: cell-based; settings: strain 8045, BHI agar, 20-24 hours
[16] = system: Pseudomonas cepacia; assay: antimicrobial spectrum, agar dilution MIC; format: cell-based; settings: Burkholderia cepacia, strain 2961; BHI agar, 20-24 hours; read-out: MIC
Procedure: Erythromycin A was used for this purpose.
After incubation, each disk is read.

[17] = system: Acinetobacter SP; assay: antimicrobial spectrum, agar dilution MIC; format: cell-based; settings: strain CMX 669, BHI agar, 20-24 hours
[18] = system: Staph. saprophyticus; assay: microbe, parasite or virus in culture; settings: Staphylococcus saprophyticus, ATCC15305
Procedure: Twelve petri dishes containing successive aqueous dilutions of the test compound mixed with 10 ml of sterilized Brain Heart Infusion agar (Difco 0418-01-5) are prepared. Each plate is inoculated with 1:100 (or 1:10 for slow-growing strains, primarily Micrococcus and Streptococcus) dilutions of up to 32 different microorganisms, using a Steers replicator block. The inoculated plates are incubated at 35°-37° C. for 20-24 hours. In addition, a control plate, using BHI agar containing no test compound, is prepared and incubated at the beginning and end of each test.
An additional plate containing a compound having known susceptibility patterns for the organisms being tested and belonging to the same antibiotic class as the test compound is also prepared and incubated as a further control, as well as to provide test-to-test comparability.
After incubation, each disk is read. The MIC is defined as the lowest concentration of drug yielding no growth, a slight haze, or sparsely isolated colonies on the inoculum spot as compared to the growth control.

[19] = system: gut contractions (stomach, duodenum, jejunum); settings: dog, in vivo, iv, 4 mg/kg
Procedure: Compounds of this invention have been tested for gastrointestinal stimulating activity in a dog model at 4 mg/kg intravenously. Contractions in the gut were recorded with surgically implanted strain gauges. […] Ratios were calculated for the stomach, duodenum and jejunum, and a final arithmetic mean index was calculated and reported in Table 1.

[20] = system: Staph. aureus NCTC 10649; assay: acute mouse protection test; settings: for ED50: Staphylococcus aureus, NCTC10649, in Mus musculus, 168 h, dosed 1 and 5 hours post-infection, observed 7 days; for # Died: ten mice
Procedure: The acute mouse protection test is conducted on ten mice with each of three levels of drug.
The acute mouse protection test is conducted on female, Swiss albino mice, 18-20 grams in weight. The mice are injected intraperitoneally with an 18-hour culture of the indicated test organism diluted sufficiently to provide the desired LD50 value. To check the potency of the inoculum, a titration of the indicated test organism is carried out in control animals. […] The ED50 values are calculated using the mortality data collected.

Structure (SMILES): CC[C@H]1OC(=O)[C@H](C)[C@@H](O[C@H]2C[C@@](C)(OC)[C@@H](O)[C@H](C)O2)[C@H](C)[C@@H](O[C@@H]2O[C@H](C)C[C@H](N(C)C)[C@H]2O)[C@](C)(OC)C[C@@H](C)C(=O)[C@H](C)[C@H]2NC(=O)O[C@@]21C [Example 2, 11-deoxy-6-O-methyl erythromycin A 11,12 cyclic carbamate]
- MIC [1]: > 100 µg/mL
- MIC ([2]; strain 5007): 100 µg/mL (≈ 129 µM)
- MIC ([2]; strain BMH10): 50 µg/mL (≈ 64.7 µM)
- MIC ([2]; strain K799/61): 1.56 µg/mL (≈ 2.02 µM)
- MIC ([2]; strain K799/WT): 50 µg/mL (≈ 64.7 µM)
- MIC ([3]; ATCC6538P, strain ATCC 6538P): 0.1 µg/mL (≈ 0.129 µM)
- MIC ([3]; ATCC25923, strain ATCC 25923): 0.015 µg/mL (≈ 0.0194 µM)
- MIC ([3]; NCTC10649, strain NCTC 10649, read-out: MIC): 0.06 µg/mL (≈ 0.0776 µM)
- MIC ([3]; strain 45): 0.1 µg/mL (≈ 0.129 µM)
- MIC ([3]; strain 45 RAR 2): 0.2 µg/mL (≈ 0.259 µM)
- MIC ([3]; strain 642A): 0.03 µg/mL (≈ 0.0388 µM)
- MIC ([3]; strain A5177): 0.39 µg/mL (≈ 0.505 µM)
- MIC ([3]; strain A-5278): > 128 µg/mL
- MIC ([3]; strain CMX 686B): 0.1 µg/mL (≈ 0.129 µM)
- MIC ([3]; strain CMX 705): 0.015 µg/mL (≈ 0.0194 µM)
- MIC ([3]; strain CMX 730A): 0.015 µg/mL (≈ 0.0194 µM)
- MIC ([3]; strain CMX 739A): 0.015 µg/mL (≈ 0.0194 µM)
- MIC ([3]; strain GYR 1150): 0.03 µg/mL (≈ 0.0388 µM)
- MIC ([3]; strain GYR 1162): 0.03 µg/mL (≈ 0.0388 µM)
- MIC ([4]; strain 3519): 0.05 µg/mL (≈ 0.0647 µM)
- MIC ([4]; strain 3519 RARI): 0.05 µg/mL (≈ 0.0647 µM)
- MIC ([4]; strain CMX 724G): > 128 µg/mL
- MIC ([4]; strain CMX 728): 0.03 µg/mL (≈ 0.0388 µM)
- MIC ([4]; strain CMX 729h): > 128 µg/mL
- MIC ([4]; strain GYR 1151): 0.03 µg/mL (≈ 0.0388 µM)
- MIC ([5]; strain CMX 508): 0.01 µg/mL (≈ 0.0129 µM)
- MIC ([5]; strain CMX 633): 0.015 µg/mL (≈ 0.0194 µM)
- MIC [6]: 0.02 µg/mL (≈ 0.0259 µM)
- MIC ([7]; strain A-5168): > 128 µg/mL
- MIC ([7]; strain CMX 663F): 0.5 µg/mL (≈ 0.647 µM)
- MIC ([7]; strain CMX 729G, read-out: MIC): 0.12 µg/mL (≈ 0.155 µM)
- MIC ([7]; strain CMX 736F, read-out: MIC): 0.06 µg/mL (≈ 0.0776 µM)
- MIC ([7]; strain GYR 1164, read-out: MIC): 0.12 µg/mL (≈ 0.155 µM)
- MIC ([7]; strain GYR 1166, read-out: MIC): 0.06 µg/mL (≈ 0.0776 µM)
- MIC ([7]; strain GYR 1167, read-out: MIC): 0.12 µg/mL (≈ 0.155 µM)
- MIC [8]: 0.05 µg/mL (≈ 0.0647 µM)
- MIC [9]: 16 µg/mL (≈ 20.7 µM)
- MIC ([9]; strain CMX 635, BHI agar, 20-24 hours): 0.004 µg/mL (≈ 0.00517 µM)
- MIC ([9]; strain CMX 698, BHI agar, 20-24 hours): 0.004 µg/mL (≈ 0.00517 µM)
- MIC ([10]; strain 930): > 100 µg/mL
- MIC ([10]; strain C203): 0.004 µg/mL (≈ 0.00517 µM)
- MIC ([10]; strain EES61): 0.05 µg/mL (≈ 0.0647 µM)
- MIC ([10]; strain M79061-98, read-out: MIC): 0.25 µg/mL (≈ 0.323 µM)
- MIC ([10]; strain M79061-139): 0.004 µg/mL (≈ 0.00517 µM)
- MIC ([10]; strain M79061-140): 0.004 µg/mL (≈ 0.00517 µM)
- MIC ([11]; strain DC-2): 50 µg/mL (≈ 64.7 µM)
- MIC ([11]; strain H560): 3.1 µg/mL (≈ 4.01 µM)
- MIC ([11]; strain JUHL): 50 µg/mL (≈ 64.7 µM)
- MIC ([11]; strain KNK 437): 25 µg/mL (≈ 32.3 µM)
- MIC ([11]; strain SS): 0.39 µg/mL (≈ 0.505 µM)
- MIC ([12]; strain 4698, BHI agar): 0.39 µg/mL (≈ 0.505 µM)
- MIC ([12]; strain 9341, BHI agar): 0.05 µg/mL (≈ 0.0647 µM)
- MIC [13]: 0.05 µg/mL (≈ 0.0647 µM)
- MIC [14]: 100 µg/mL (≈ 129 µM)
- MIC [15]: 50 µg/mL (≈ 64.7 µM)
- MIC [16]: 25 µg/mL (≈ 32.3 µM)
- MIC [17]: 6.2 µg/mL (≈ 8.02 µM)
- MIC [18]: 0.03 µg/mL (≈ 0.0388 µM)
- Gastrointestinal Motility Index [19]: 1.18
- ED50 ([20]; po, dosage medium Carboxymethylcellulose): 45.2 mg/kg
- ED50 ([20]; po, dosage medium PBS): 34.4 mg/kg
- ED50 ([20]; sc, subcutaneous, dosage medium Injectable solution): 5 mg/kg
- # Died ([20]; oral, Carboxymethylcellulose, 9.4 mg/kg): 10
- # Died ([20]; oral, Carboxymethylcellulose, 62.5 mg/kg): 7
- # Died ([20]; oral, Carboxymethylcellulose, 150.0 mg/kg): 0
- # Died ([20]; oral, PBS, 9.4 mg/kg): 10
- # Died ([20]; oral, PBS, 62.5 mg/kg): 7
- # Died ([20]; oral, PBS, 150.0 mg/kg): 0
- # Died ([20]; subcutaneous, Injectable solution, 2.5 mg/kg): 9
- # Died ([20]; subcutaneous, Injectable solution, 10.0 mg/kg): 1
- # Died ([20]; subcutaneous, Injectable solution, 40.0 mg/kg): 0
